In patent publication US20150064221A1, “COMPOUNDS HAVING IMMUNOMUDULATOR ACTIVITY” (priority 2012, published 2015):
“Also recorded” adds a separate entry of the source.

Assays:
[1] = Oral absorption in mice; type: in vivo
Experimental: The highest plasma concentrations generally occurred in 1-2 hours. […] The highest level of inhibition was ˜35% for 2C19 at a 30 μM concentration. […] Lastly, VGX-1027 is stable in human liver S9 fractions (with phase 1 and 2 cofactors) with t1/2>90 minutes, which indicates a low likelihood of metabolism in the liver.

[2] = Twenty-eight day toxicology study in mice; type: in vivo; conditions: 28 days, highest dose 500 mg/kg/day
Experimental: Twenty-eight day toxicology studies were performed in both mice and dogs with increasing concentration to achieve toxicity. The following are the results of those studies.

[3] = system: various asynchronously growing cell lines (HeLa, Jurkat, RD, PBMCs, U937); experiment: Cell viability (MTT assay, P1/Annexin V staining); type: cell-based; set-up: viability: dose or concentration left out as unconfirmed
Experimental: (§1) (A) Cell viability was measured via the MTT assay after 48 hours of treatment. (B) TNF-α levels were measured 48 hours post LPS (5 μg/ml) stimulation. (C) CD4 T cells were stimulated with either ConA (10 μg/ml) or anti-CD3/CD28 beads (10 μg/ml), and proliferation was measured via 3H-thymidine incorporation.
VGX-1027 was tested for whether its effects were cell-type-specific.

[4] = system: p38 and 1-kBα; experiment: LPS-induced signalling pathway phosphorylation; type: cell-based
Experimental: (A) Thioglycollate-elicited macrophages (1×10^6/ml) were stimulated with either LPS (5 μg/ml), zymosan (ZYM, 50 μg/ml), MDP (25 μg/ml), or Poly(I:C) (50 μg/ml) in the presence or absence of VGX-1027 (10 μg/ml). TNF-α was measured 48 hours post treatment. (B) Relative phosphorylations of 1-κBα and p38 were measured at the indicated time points following stimulation with LPS (5 μg/ml). The y-axis is presented as fold change in comparison to the values obtained from LPS-treated cultures alone. * p<0.05.
(Jiang et al., J. Biol. Chem., (278) 16713-16719 (2003). In addition, it was observed that VGX-1027 inhibited LPS-induced phosphorylation of p38 and 1-kBα, indicating VGX-1027 inhibits a protein upstream of both the p38 and NF-κB, signaling pathways (FIG. 4b).

[5] = system: U937s, RAWs, primary monocytes, PBMCs, Jurkats, undifferentiated CD4 T cells, 293Ts, RD cells; experiment: LPS-induced TNF-α production in different cell types; type: cell-based
Experimental: as §1
Next, the production of TNF-α was measured following LPS stimulation in these different cell types. […] VGX-1027-induced effects were not observed.

[6] = Placebo-controlled ascending single-dose study in healthy subjects (CAT001); type: in vivo, human; conditions: for Cmax / half-life / AUC / Tmax / AUC(0-t): human, in vivo, oral; for AUC(0-t): read-out: AUC (0-24)
Experimental: FIG. 21. […] Subjects were administered from 1 mg to 800 mg of VGX1027.
A placebo-controlled, ascending single-dose study was performed to evaluate the safety and pharmacokinetics of VGX-1027 in healthy human subjects. Study was performed upon 7 groups of subjects: group 1: 1 mg of VGX-1027 after fasting; group 2: 10 mg of VGX-1027 after fasting; group 3: 100 mg of VGX-1027 after fasting; group 4: 200 mg of VGX-1027 after fasting; group 5: 400 mg of VGX-1027 after fasting; group 6: 800 mg of VGX-1027 after fasting; and group 7: 100 mg of VGX-1027 after fasting, and after fed.

[7] = Placebo-controlled ascending multiple-dose study in healthy subjects; type: in vivo, human; conditions: for Tmax / Cmax / AUC(0-t) / AUC: human, in vivo, oral; for Cmax / AUC(0-t) / AUC: Geo Mean; for AUC(0-t): read-out: AUC (0-24); for AUC: read-out: AUC (AUC to 12 hours)
Experimental: A placebo-controlled, ascending multiple-dose study was also performed to evaluate the safety and pharmacokinetics of VGX-1027 in healthy human subjects. The primary outcome to be measure was the safety as determined by vital signs, physical examinations, ECGs, clinical laboratory evaluations, and adverse event reporting. The secondary outcome measured was the pharmacokinetics on day 1 and at steady state-on day 5. Study was performed upon 4 groups of subjects: group 1: 40 mg of VGX-1027 QD; group 2: 100 mg of VGX-1027 QD; group 3: 200 mg of VGX-1027 QD; group 4: 200 mg of VGX-1027 BID. The pharmacokinetics is provided in Table 7, below, along with data from the single dose study: […]

[8] = 1 mg, single dose 1 mg, fasted, geometric mean
[9] = 10 mg, single dose 10 mg, fasted, geometric mean
[10] = 100 mg, Fasted vs Fed: 100 mg fasted, geometric mean
[11] = 100 mg, Fasted vs Fed: 100 mg fed, geometric mean
[12] = 100 mg, single dose 100 mg, fasted, geometric mean
[13] = 200 mg, single dose 200 mg, fasted, geometric mean
[14] = 400 mg, single dose 400 mg, fasted, geometric mean
[15] = 800 mg, single dose 800 mg, fasted, geometric mean
[16] = 100 mg, Multiple Dose (Day 1) 100 mg
[17] = 100 mg, Multiple Dose (Day 5) 100 mg
[18] = 200 mg, 200 mg BID, first dose, Day 1
[19] = 200 mg, 200 mg BID, first dose, Day 5
[20] = 200 mg, Multiple Dose (Day 1) 200 mg
[21] = 200 mg, Multiple Dose (Day 5) 200 mg

O=C(O)CC1CC(c2ccccc2)=NO1 (stereo not shown) [VGX-1027, 3-phenyl-4,5-dihydro-5-isoxazoleacetic acid]
oral absorption [1]: rapidly absorbed
time of highest plasma concentrations [1]: 1 to 2 h
toxicology findings [2]: notable changes found in kidneys, liver, spleen, testis, epidydimus and bladder
viability ([3]; 48 hours, MTT): Greater than 80%
toxicity to cell lines ([3]; MTT assay and P1/Annexin V staining, up to 100 mM): did not cause toxicity; also recorded: not toxic
ERK pathway [4]: up-regulation
phosphorylation of 1-kBα ([4]; LPS-induced): inhibited
phosphorylation of p38 ([4]; LPS-induced): inhibited
TNF-α production ([5]; 293Ts): did not affect
TNF-α production ([5]; Jurkats): did not affect
LPS-induced TNF-α production ([5]; PBMCs): inhibited
LPS-induced TNF-α production ([5]; RAWs): inhibited
TNF-α production ([5]; RD cells): did not affect
LPS-induced TNF-α production ([5]; U937s): inhibited
LPS-induced TNF-α production ([5]; primary monocytes): inhibited
TNF-α production ([5]; undifferentiated CD4 T cells): did not affect
Grade 3 or 4 AEs ([6]; human studies): No Grade 3 or 4 AEs were reported
SAEs ([6]; human studies): no SAEs were reported
Cmax [6, 8]: 50 ng/mL
half-life [6, 8]: 7.2 h
AUC ([6]; 1 mg, single dose 1 mg, fasted, geometric mean, read-out: AUC): 460 ng·h/mL
Tmax ([6]; 1 mg, single dose 1 mg, fasted, median): 1 h
Cmax [6, 9]: 1100 ng/mL
half-life [6, 9]: 4.9 h
AUC ([6]; 10 mg, single dose 10 mg, fasted, geometric mean, read-out: AUC): 4430 ng·h/mL
Tmax ([6]; 10 mg, single dose 10 mg, fasted, median): 0.5 h
Cmax [6, 10]: 6500 ng/mL
half-life [6, 10]: 5.9 h
AUC ([6]; 100 mg, Fasted vs Fed: 100 mg fasted, geometric mean, read-out: AUC): 37800 ng·h/mL
Tmax ([6]; 100 mg, Fasted vs Fed: 100 mg fasted, median): 1.25 h
Cmax [6, 11]: 4600 ng/mL
half-life [6, 11]: 6.3 h
AUC ([6]; 100 mg, Fasted vs Fed: 100 mg fed, geometric mean, read-out: AUC): 55700 ng·h/mL
Tmax ([6]; 100 mg, Fasted vs Fed: 100 mg fed, median): 3.5 h
Tmax ([6]; 100 mg, Single Dose (CAT001) 100 mg): 1.8 h
Cmax ([6]; 100 mg, Single Dose (CAT001) 100 mg, Geo Mean): 9070 ng/mL
Cmax [6, 12]: 9100 ng/mL
half-life [6, 12]: 8.8 h
AUC ([6]; 100 mg, single dose 100 mg, fasted, geometric mean, read-out: AUC): 74600 ng·h/mL
Tmax ([6]; 100 mg, single dose 100 mg, fasted, median): 1.75 h
Tmax ([6]; 200 mg, Single Dose (CAT001) 200 mg): 1.5 h
Cmax ([6]; 200 mg, Single Dose (CAT001) 200 mg, Geo Mean): 15700 ng/mL
AUC ([6]; 200 mg, Single Dose (CAT001) 200 mg, Geo Mean, read-out: AUC (AUC to 12 hours)): 78500 ng·h/mL
Cmax [6, 13]: 15700 ng/mL
half-life [6, 13]: 7.7 h
AUC ([6]; 200 mg, single dose 200 mg, fasted, geometric mean, read-out: AUC): 111000 ng·h/mL
Tmax ([6]; 200 mg, single dose 200 mg, fasted, median): 1.5 h
Cmax [6, 14]: 23800 ng/mL
half-life [6, 14]: 6.7 h
AUC ([6]; 400 mg, single dose 400 mg, fasted, geometric mean, read-out: AUC): 155000 ng·h/mL
Tmax ([6]; 400 mg, single dose 400 mg, fasted, median): 1.25 h
Cmax [6, 15]: 43200 ng/mL
half-life [6, 15]: 7.9 h
AUC ([6]; 800 mg, single dose 800 mg, fasted, geometric mean, read-out: AUC): 330000 ng·h/mL
Tmax ([6]; 800 mg, single dose 800 mg, fasted, median): 2 h
AUC(0-t) ([6]; Single Dose (CAT001) 100 mg, Geo Mean): 66800 ng·h/mL
AUC(0-t) ([6]; Single Dose (CAT001) 200 mg, Geo Mean): 98400 ng·h/mL
tolerability in humans ([6]; oral pill): safe and well-tolerated
dosing toxicities ([6]; up to 800 mg QD single dose): No dosing toxicities were observed
urine drug levels ([7]; CAT002 urine PK analysis): high drug levels in urine
Tmax [7, 16]: 1 h
Cmax [7, 16]: 7570 ng/mL
AUC(0-t) [7, 16]: 31300 ng·h/mL
Tmax [7, 17]: 1.5 h
Cmax [7, 17]: 6760 ng/mL
AUC(0-t) [7, 17]: 23200 ng·h/mL
Tmax [7, 18]: 1 h
Cmax [7, 18]: 13100 ng/mL
AUC [7, 18]: 58200 ng·h/mL
Tmax [7, 19]: 1.5 h
Cmax [7, 19]: 16800 ng/mL
AUC [7, 19]: 70400 ng·h/mL
Tmax [7, 20]: 1.3 h
Cmax [7, 20]: 15700 ng/mL
AUC(0-t) [7, 20]: 78100 ng·h/mL
Tmax [7, 21]: 2 h
Cmax [7, 21]: 14100 ng/mL
AUC(0-t) [7, 21]: 65700 ng·h/mL
dosing toxicities ([7]; up to 200 mg bid for 5 days): No dosing toxicities were observed
